Experimental data reported in paper PMC6979384, “Characterization of the plant homeodomain (PHD) reader family for their histone tail interactions” (Epigenetics & Chromatin, 2020).
Entries after “also recorded” stand apart in the source; their conditions may differ. Each block holds one substance with its values, some of them ahead of it.

Legend:
MLL5 = assay: dCypher AlphaScreen Phase B (full peptide screen); assay type: binding, human; conditions: reader 0.02 nM, 100 nM peptide, 23 °C, n = 2
Method: (§1) X-axes are log(protein concentration (M)) at constant peptide concentration (100 nM); Y-axes are AlphaScreen counts, representing relative strength of binding (n = 2; error bars are S.D.). i Heat map represents relative binding to H3 N-terminal peptides (left) by PHD-containing GST-tagged proteins (top) using the dCypher AlphaScreen platform. Protein concentrations can be found in Additional file 5: Table S4. Binding strength is indicated by color gradient from green to yellow (stronger to weaker). […] Alpha counts (n = 2) were normalized individually for each protein to the highest signal for each respective assay. For full dCypher peptide screen data, see Additional file 4: Table S3
(§2) Once the optimal protein concentration ranges for each of the eight readers were determined, we conducted the full dCypher peptide screen (293 histone peptides) (Fig. 3i; Additional file 4: Table S3).
(§3) The dCypher peptide screen assay was performed as previously described. Briefly, 5 μL of GST-tagged reader domains (optimal protein concentration for library screening determined by initial binding curves to candidate peptides) were incubated with 5 μL of 400 nM (100 nM Final) biotinylated histone peptides (EpiCypher) for 30 min at 23 °C in 1× AlphaLISA Epigenetics buffer + epigenetics buffer supplement (PerkinElmer, AL1008) in a 384-well plate. A 10 μL mix of 5 µg/mL (2.5 μg/mL final) glutathione Acceptor beads (PerkinElmer, AL109M) and 10 μg/mL (5 μg/mL final) streptavidin Donor beads (PerkinElmer, 6760002) was prepared in 1× [Epigenetics buffer + supplement] and added to each well. Plates were incubated at 23 °C in subdued lighting for 60 min and AlphaLISA signal measured on a PerkinElmer 2104 EnVision (680 nm laser excitation, 570 nm emission filter ± 50 nm bandwidth).
(§4) Supplementary file 13072_2020_328_MOESM4_ESM.xlsx: Additional file 4: Table S3. dCypher Results. Excel Tab Peptide Phase A is a compiled set of binding data: chromatin reader titration vs. several peptide targets. Data is presented as raw Alpha counts in duplicates at each concentration tested. Excel Tab Peptide Phase B is a compiled set of binding data: chromatin reader at optimized concentrations vs. entire 293 peptide library. Data is presented as the average and standard deviation of duplicates. […] Key: red = strong binding; blue = weak/no binding.

DIDO1 = assay: dCypher AlphaScreen Phase B (full peptide screen); assay type: binding, human; conditions: reader 0.1 nM, 100 nM peptide, 23 °C, n = 2
Method: as §1, §2, §3, §4

KDM7A = assay: dCypher AlphaScreen Phase B (full peptide screen); assay type: binding, human; conditions: reader 0.15 nM, 100 nM peptide, 23 °C, n = 2
Method: as §1, §2, §3, §4

DPF2 (PPC2W2) = assay: dCypher AlphaScreen Phase B (full peptide screen); assay type: binding, human; conditions: reader 0.1 nM, 100 nM peptide, 23 °C, n = 2
Method: as §1, §2, §3, §4

CHD4 = conditions: cited from earlier work
From the text: Plant homeodomain fingers comprise one of the largest families of reader domains, with over 100 human proteins containing this module. PHD fingers are Zn-coordinating domains that generally recognize unmodified or methylated lysines. To date, the majority of those characterized bind to histone H3 tails either methylated at K4 [7], or unmodified in that position (i.e., KDM5B PHD3 versus KDM5B PHD1 [10, 11] or PHF21A, also known as BHC80 [12]).

Substance: H3K4me1: H3 1-20 [Peptide H3K4me1]
- binding (MLL5): also identified interaction of these domains with the H3K4me1 peptide
- binding (DIDO1): also identified interaction of these domains with the H3K4me1 peptide

- binding (KDM7A): reader of H3K4me3
Substance: H3K4me3: H3 1-20 [Peptide H3K4me3]

Substance: H3K9me3: H3 1-20 [Peptide H3K9me3]
- binding (DPF2 (PPC2W2)): ability to bind to the peptides containing H3K9me3
- reported binding (CHD4): annotated to recognize H3K9me3; also recorded: reported as readers of H3K9 trimethylation
